Measured values reported in patent US8158575B2, “Agent for the prevention and treatment of sexually transmitted diseases-I” (priority 2001, dated 2012).
Where “and” joins values, the source holds several entries; their conditions need not be identical. Equal entries are not always repeated.

Experiments:
HeLa CD4 LTR […]-gal cells [1] = assay: XTT toxicity on sister plate of the attachment assay; type: cell-based; settings: XTT, sister plate
Protocol: This assay is designed to detect compounds that interact with the cell and block virus attachment, and/or compounds which interact with the forming attachment/fusion complex. The attachment assay is performed with HeLa CD4 LTR […]-gal cells. HeLa CD4 LTR […]-gal cells are routinely cultured with the required selection antibiotics. Twenty-four h prior to initiation of the assay the cells are trypsinized, counted and 1×10^4 cells placed in a 0.2 cm well in media without selection antibiotics. At 24 h media is removed and compound in media placed on the cells and incubated for 15 min at 37° C. A known titer of the IIIB strain of HIV is then added to the wells and the incubation continued for 1 h. At the end of the incubation the wells are washed 3 times with media and the culture continued for 40 to 48 h. At termination of the assay, media is removed and […]-galactosidase enzyme expression determined by chemiluminescence per manufacturers instructions (Tropix Gal-screen™, Bedford Mass.) by a single step chemiluminescent method using a single solution to lyse the cells and detect […]-galactosidase enzyme activity. Compound toxicity is monitored on a sister plate by XTT dye reduction. […] The virus adsorption interval of 1 h is sufficiently short that AZT, which requires phosphorylation to its active tri-phosphate form (AZT-TTP), is not active in this assay.

[2] = target: T1, cell-to-cell fusion mediated by HIV-1 Env and CD4 (Human immunodeficiency virus type 1 group M subtype B, UniProt P04578); type: cell-based; settings: TC50/IC50
T1 construct: expressed in transfected cells; host or cells: HeLa CD4 LTR beta-gal cells (CD4) co-cultured with HL2/3 cells (HIV-1 Env)
Protocol: (§1) The fusion assay assesses the ability of compounds to block cell-to-cell fusion mediated by HIV-1 Env and CD4 expressed on separate cells. This assay is sensitive to inhibitors of both the gp120/CD4 interaction and inhibitors of the X4 coreceptor. First, 5×10^3 HeLa CD4 LTR […]-gal cells are placed in microtiter wells and incubated overnight. The following day the media is removed and the HeLa CD4 LTR […]-gal cells are incubated for 1 h at 37° C. in fresh media with test compound. Following the incubation 5×10^3 HL2/3 cells are added and the incubation continued for 40 to 48 h. At 40 to 48 h […]-galactosidase enzyme expression is detected by chemiluminescence (Tropix Gal-screen™, Tropix, Bedford, Mass.). Compound toxicity is monitored on a sister plate using XTT dye reduction.

HeLa CD4 LTR […]-gal cells [3] = assay: XTT toxicity on sister plate of the fusion assay; type: cell-based; settings: XTT, sister plate
Protocol: as §1

GHOST(3) X4/R5 cell line = assay: XTT cell viability in the CD4-dependent transmission assay; type: cell-based, human
Protocol: The […] is carried out essentially as described for the CD4-independent transmission assay except for the use of the CD4 positive GHOST(3) X4/R5 cell line. This cell line is derived from the HOS (human osteosarcoma) cell line that is negative for HIV coreceptor and CD4 expression. The cell line is engineered to express T4 (CD4), R5 and X4 via non-selectable retroviral vectors and an HIV-2 LTR hGFP construct with a hygromycin selectable marker. The cell lines are handled and cultured as described above for the CD4-independent HIV inhibition assay, with the exception that 2.5×10^4 GHOST(3) X4/R5 and 5×10^2 mitomycin C treated H9/SK-1 cells are used in the assay. Addition of compounds, mitomycin C treatment and post-transmission washing to remove the H9/SK-1 cells are performed as described above to allow comparability of the two antiviral assays. Virus replication is assessed at 24 h post infection, following 3 washes, by measurement of cell-associated p24 by ELISA to ensure a single round of infection in the presence of CD4. Compound toxicity and cell viability are assessed by XTT dye reduction.

ME180 cells = assay: XTT cell viability in the CD4-independent transmission assay
Protocol: ME180 cells, a CD4 negative, X4 positive cervical epithelial cell line is maintained in RPMI 1640 supplemented with 10% fetal bovine serum, glutamine and antibiotics. Twenty-four h prior to the assay ME180 cells are trypsonized, washed and seeded in 96-well flat bottom microtiter plates at a density of 2×10^3 cells per well. On the day of the assay, H9 cells chronically infected with the SK1 clinical isolate of HIV-1 (H9-SK1) are treated with freshly made mitomycin C (200 μg/ml) for 60 minutes at 37° C. This concentration of mitomycin C is sufficient to result in cell death, but allows virus transmission to occur. After mitomycin C treatment the H9-SK1 cells are washed three times with tissue culture medium. Test compounds are added to the ME180 monolayer followed by 2×10^4 H9-SK1 cells. The ME180 cells are co-cultured with H9-SK-1 cells and test material for 4 h, and the H9-SK1 cells are removed by washing the ME180 monolayer three times with PBS. At 24 and 48 h post assay initiation the wells are again washed three times with PBS to ensure removal of the H9-SK1 cells, and culture continued in test material free media. At six days post-co-cultivation, supernatants are collected and evaluated for p24 antigen expression by ELISA. Cell viability is assessed by XTT dye reduction. […] Testing in the presence of mucin is carried out by addition of 200 µg/ml of porcine mucin (Sigma Chemical Co., St Louis, Mo.) to the transmission reactions. Transmission intervals and washing without replacement of mucin or compound are carried as described above. All determinations are performed in triplicate with serial ½ Log10 dilution of the test materials.
TC50 values for the test materials are derived by measuring the reduction of the tetrazolium dye XTT (2,3-bis(2-methoxy-4-nitro-5-sulfophenyl)-5-[(phenylamino)carbonyl]-2H-tetrazolium hydroxide) in replicate microtiter plates containing cell and compound without virus. […] XTT solution is prepared daily as a stock of 1 mg/mL in PBS. Phenazine methosulfate (PMS) solution is prepared at 15 mg/mL in PBS and stored in the dark at −20° C. XTT/PMS stock is prepared immediately before use by diluting the PMS 1:100 into PBS and adding 40 µl per mL of XTT solution. Fifty microliters of XTT/PMS are added to each well of the plate and the plate incubated for 4 h at 37° C. The 4 h incubation has been empirically determined to be within the linear response range for […] dye reduction with the indicated numbers of cells for each assay. Adhesive plate sealers are used in place of the lids, the sealed plate is inverted several times to mix the soluble formazan product and the plate is read at 450 nm with a Molecular Devices Vmax 96 well plate format spectrophotometer.
Dextran sulfate (positive) and dextran (negative) are used as controls for the CD4-dependent and CD4-independent HIV transmission inhibition assays. […] Commercially available Penicillin (10,000 U/ml) Streptomycin (10.0 mg/ml) solution is used as a positive control for the Lactobacillus sensitivity assay.

PBMCs = assay: MTS cell viability in PBMC assay; type: cell-based, human; settings: AZT control
From the text: Human peripheral blood mononuclear cells from a minimum of 2 donors, that have been blasted with PHA and IL-2, were counted, viability determined by Trypan Blue dye exclusion and mixed in equal ratios. Pooled donors were used to minimize the variability observed between individual donors which results from quantitative and qualitative differences in HIV infection and overall response to the PHA and IL-2 of primary lymphocyte populations. The cells were resuspended at 1×10^6 cells/mL in RPMI 1640 without phenol red supplemented with 15% Fetal Bovine Serum (heat inactivated), 2 mM L-glutamine, 100 U/mL penicillin, 100 μg/mL streptomycin, 10 μg/mL gentamycin and IL-2 (20 U/mL, R&D Systems, Minneapolis, Minn.). Fifty microliters of cells were then distributed to the inner 60 wells of a 96 well round bottom microtiter culture plate in a standard format developed by the Infectious Disease Research department of Southern Research Institute. Each plate contains cell control wells (cells only), virus control wells (cells plus virus), and experimental wells (drug plus cells plus virus). Serially diluted compounds are added to the microtiter plate followed by the appropriate pre-titered strain of HIV-1 or SHIV-1. All samples were assayed in triplicate with a replicate plate without virus for the determination of compound toxicity. The final volume per well was 200 µL. The assay was incubated for 6 days in a humidified atmosphere at 37° C., 5% CO2, after which supernatants were collected, for analysis of RT activity and sister plates analyzed for cell viability by MTS dye reduction. Wells were also examined microscopically and any abnormalities noted.
At assay termination the assay plates were stained with the soluble tetrazolium-based dye MTS (CellTiter® Reagent Promega, Madison, Wis.) to determined cell viability and quantify compound toxicity. […] At termination of the PBMC assay 20 µL of MTS reagent was added per well, and the wells are incubated for 4 h at 37° C.
AZT has been used as a relevant positive control compound for the individual assays.

SHIV 89.6pd = assay: PBMC antiviral assay (RT activity); type: cell-based; settings: 6 days, AZT control, read-out: SHIV 89.6pd Infected PBMCs IC50
Protocol: (§2) Human immunodeficiency virus type 1 (HIV-1) strain RoJo is a low passage pediatric isolate derived in the laboratories of Southern Research Institute (SRI). The SHIV89.6pd was obtained from Mark Lewis at SRI and stocks grown in human PBMCs for antiviral testing.
(§3) Peripheral blood monocular cells (PBMCs) were obtained from normal hepatitis and HIV-1 negative donors by ficoll hypaque gradient separation. Briefly, anti-coagulated blood was diluted 1:1 with Dulbecco's phosphate buffered saline without Ca^++ and Mg^++ (PBS) and layered over 14 mL of Lymphocyte separation media in a 50 ml centrifuge tube. Tubes were then centrifuged for 30 minutes at 600×g. […] The mononuclear cells were counted, viability determined by Trypan Blue dye exclusion and resuspended in RPMI 1640 medium supplemented with 15% FBS (heat inactivated), 2 mM L-glutamine, 100 U/mL penicillin, 100 µg/mL streptomycin, and 10 µg/mL gentamycin with 2 µg/mL phytohemagluttin (PHA) at 1×10^6 cells/mL. […]
(§4) Human peripheral blood mononuclear cells from a minimum of 2 donors, that have been blasted with PHA and IL-2, were counted, viability determined by Trypan Blue dye exclusion and mixed in equal ratios. […] The assay was incubated for 6 days in a humidified atmosphere at 37° C., 5% CO2, after which supernatants were collected, for analysis of RT activity and sister plates analyzed for cell viability by MTS dye reduction. […]

HIV-1 RoJo = assay: PBMC antiviral assay (RT activity); type: cell-based; settings: 6 days, AZT control, read-out: HIV-1 RoJo Infected PBMCs IC50
Protocol: as §2, §3, §4

Row | Molecule | Attachment Assay TC50 (HeLa CD4 LTR […]-gal cells [1]) [µg/mL] | Fusion Assay TI [2] | Fusion Assay TC50 (HeLa CD4 LTR […]-gal cells [3]) [µg/mL] | CD4-Dependent Transmission Assay TC50 (GHOST(3) X4/R5 cell line; Exp. 1, without mucin) [µg/mL] | CD4-Dependent Transmission Assay TC50 (GHOST(3) X4/R5 cell line; Exp. 2, with mucin) [µg/mL] | CD4-Dependent Transmission Assay TC50 (GHOST(3) X4/R5 cell line; Exp. 2, without mucin) [µg/mL] | CD4-Independent Transmission Assay TC50 (ME180 cells; Exp. 2, with mucin) [µg/mL] | CD4-Independent Transmission Assay TC50 (ME180 cells; Exp. 2, without mucin) [µg/mL] | HIV-1 RoJo Infected PBMCs TC50 (PBMCs; plate of the HIV-1 RoJo test) [nM] | SHIV 89.6pd Infected PBMCs TC50 (PBMCs; plate of the SHIV 89.6pd test) [nM] | IC50 (SHIV 89.6pd) [nM] | IC50 (HIV-1 RoJo) [nM]
1 | COc1cc(-c2ccc(/N=N/c3ccc4c(S(=O)(=O)O)cc(S(=O)(=O)O)c(N)c4c3O)c(OC)c2)ccc1/N=N/c1ccc2c(S(=O)(=O)O)cc(S(=O)(=O)O)c(N)c2c1O [Chicago Sky Blue, reference compound] | >10 | >12 and >16 | >10 | – | – | – | – | – | – | – | – | –
2 | dextran | – | – | – | >100 | >100 | >100 | >100 | >100 | – | – | – | –
3 | Cc1cn([C@H]2C[C@H](N=[N+]=[N-])[C@@H](CO)O2)c(=O)[nH]c1=O [AZT, reference compound] | – | – | – | – | – | – | – | – | >1000 | >1000 | 2 | 5
4 | Dextran sulfate | – | – | – | >100 | >50 | >50 | >50 | >50 | – | – | – | –
